{
  "source": "patent US20080145858A1",
  "about": "“DETECTION AND IDENTIFICATION OF TOXICANTS BY MEASUREMENT OF GENE […]” (priority 2003, published 2008)",
  "tested_on": "Xenopus laevis embryos",
  "assay": "Embryonic morphology after PMA treatment",
  "format": "in vivo",
  "description": "Embryos were sorted for successful cleavage to 2 cells (1.5 hours after fertilization), split into groups for subsequent treatment (triplicate treatments per each experimental group) and visually monitored for normal embryonic morphology. Rates of abnormal morphology were recorded for each group. Embryos at stage 8 were obtained after incubation of the fertilized embryos at 23° C. for 5 hours. PMA (100 ng/ml) or DMSO (0.01%, solvent used to dissolve PMA) was added to the embryos 2 hours after fertilization. […] Embryos at stage 15 were obtained after incubation of the fertilized embryos at 18° C. for 30 hours (the condition produced stage 15 embryos identical to embryos obtained at 23° C. for 10 hours). PMA or DMSO was added to the embryos 21 hours after fertilization.",
  "data": [
    {"compound": "CCCCCCCCCCCCCC(=O)O[C@@H]1[C@@H](C)[C@@]2(O)[C@@H](C=C(CO)C[C@]3(O)C(=O)C(C)=C[C@@H]23)[C@@H]2C(C)(C)[C@]12OC(C)=O", "note": "[PMA, phorbol 12-myristate 12-acetate]", "values": [
      {"measurement": "embryo morphology / developmental stage reached", "setting": "100 ng/ml added 2 hours after fertilization, 23° C. for 5 hours, untreated progressed to blastula", "value": "remained in a pre-blastula stage"},
      {"measurement": "embryo morphology / developmental stage reached", "setting": "added 21 hours after fertilization, 18° C. for 30 hours, untreated showed typical neurula", "value": "in a pre-neurula stage"}
    ]}
  ]
}
